≈ marks a conversion by molar mass, not a printed value. Read-outs that look alike come from different tables or passages of the source.
Legend:
[1] = Turbidity-based aqueous (kinetic) solubility in PBS pH 7.4; conditions: 25 °C, pH 7.4, aqueous buffer, kinetic from dmso stock
Protocol: In-vitro kinetic solubilities of the compounds in PBS pH 7.4 buffer at 25° C. were determined by diluting compounds from 100% dimethyl sulfoxide (DMSO) into PBS buffer and measuring absorbance at 490, 590 and 650 nm. Stock concentrations in 100% DMSO were provided at 1-6 mM in 100% DMSO. Kinetic solubilities were determined by diluting test compounds from 100% DMSO into PBS pH 7.4 buffer, as duplicate, 10 point 2-fold serial dilution starting at 100× dilution of stock DMS solution into PBS buffer in a clear, flat bottom polystyrene assay plates. Total assay volume was 200 microliters. Solutions were mixed by plate shaking, incubated for 30 m at 25° C., and absorbance was read at 490, 590 and 650 nm. […] in PBS buffer was used as a blank. For each test compound, average optical density (GD) at each concentration was determined by averaging the blank corrected sum of absorption at 490 nm, 590 nm and 650 nm, over duplicate measurements. Turbidity threshold optical density value was set as a sum of mean plus two standard deviations of the mean of absorbances at 490, 590 and 650 nm for 1% (v/v) DMSO in PBS pH 7.4 buffer. Highest soluble concentration (micromolar) corresponded to the highest concentration at which average optical density was below optical density value set for turbidity threshold (Table 4). Amiodarone and propranolol were used as low and high solubility controls respectively.

SKBR3 = assay: In vitro cytotoxicity assay (CellTiter-Glo), SKBR3; type: cell-based, Human; conditions: read-out: Cytotoxicity IC50
Protocol: (§1) Human tumor cell lines, SK-BR-3, NCI-H292, HT-29, MCF-7, NCI-N87, and FaDu were obtained from ATCC. NCI-H292, HT-29, MCF-7, and NCI-N87 cells were cultured in RPMI-1640 media (Gibco, Life Technologies) supplemented with 10% v/v heat inactivated FBS (Corning), FaDu cells were maintained in DMEM media (Gibco, Life Technologies) supplemented with 10% v/v heat inactivated FBS (Corning). SK-BR-3 cells were maintained in McCoys 5A medium (Gibco, Life Technologies) supplemented with 10% […] heat inactivated FBS (Corning) at 37° C. in a humidified incubator containing 5% CO2.
(§2) Lyophilized compounds were dissolved in 100% dry DMSO, aliquots frozen and stored at −80° C. Concentration and purity of compound stock solutions in DMSO were determined by RP-HPLC Agilent 1100 platform with 1200 DAD and SofTA ELSD detectors, and the Agilent 6150 MS system (UV/VIS, ELSD purity and MS compound identity confirmation). Shimadzu 3.0 mm×30 mm XR ODS 2.2 μm column was run at 50° C., 1.5 mL/min. Solvent A: 0.1% Formic acid in water, Solvent B: 0.08% Formic acid in methanol-Gradient: 5%-100% B in 3.0 min, 100% solvent B for 0.3 min. Concentration of compounds in 100% DMSO determined by ELS ranged from 1-6 mM.
(§3) Cells were plated in 96-well white flat-bottomed plates (Corning) at 2.0×10^3 cells per well in 100 μL culture medium. After incubation for 24 hours, test compounds were added at a range of concentrations as ten point serial dilution as duplicates or triplicates. Following further incubation for 6 days 37° C., 5% CO2, cell viability was assessed with the use of a CellTiter-Glo Luminescent Cell Viability Assay (Promega). Luminescence was measured using the GloMax instrument (Promega). […] For a subset of payloads, each treatment was independently repeated two to eight times, and IC50 values were averaged. […] Standard deviation (stdev) is shown as (N/A) for treatment performed once.

HT29 = assay: In vitro cytotoxicity assay (CellTiter-Glo), HT29; type: cell-based, Human; conditions: read-out: Cytotoxicity IC50
Protocol: as §1, §2, §3

NCI-H292 = assay: In vitro cytotoxicity assay (CellTiter-Glo), NCI-H292; type: cell-based, Human; conditions: read-out: Cytotoxicity IC50
Protocol: as §1, §2, §3

MCF7 = assay: In vitro cytotoxicity assay (CellTiter-Glo), MCF7; type: cell-based, Human; conditions: read-out: Cytotoxicity IC50
Protocol: as §1, §2, §3

NCI-N87 = assay: In vitro cytotoxicity assay (CellTiter-Glo), NCI-N87; type: cell-based, Human; conditions: read-out: Cytotoxicity IC50
Protocol: as §1, §2, §3

FaDu = assay: In vitro cytotoxicity assay (CellTiter-Glo), FaDu; type: cell-based, Human; conditions: read-out: Cytotoxicity IC50
Protocol: as §1, §2, §3

SKOV3 = assay: In vitro cytotoxicity assay (CellTiter-Glo), SKOV3; type: cell-based; conditions: read-out: Cytotoxicity IC50
Protocol: (§4) Lyophilized compounds were dissolved in 100% dry DMSO, aliquots frozen and stored at −80° C. […] Shimadzu 3.0 mm×30 mm XR ODS 2.2 μm column was run at 50° C., 1.5 mL/min. Solvent A: 0.1% Formic acid in water, Solvent B: 0.08% Formic acid in methanol-Gradient: 5%-100% B in 3.0 min, 100% solvent B for 0.3 min.
as §3

BXPC3 = assay: In vitro cytotoxicity assay (CellTiter-Glo), BXPC3; type: cell-based; conditions: read-out: Cytotoxicity IC50
Protocol: as §4, §3

Compound | solubility at 30 min [1] | IC50 (SKBR3; Homo sapiens, SK-BR-3, 144 h) | IC50 (HT29; Homo sapiens, HT-29, 144 h) | IC50 (NCI-H292; Homo sapiens, NCI-H292, 144 h) | IC50 (MCF7; Homo sapiens, MCF7, 144 h) | IC50 (NCI-N87; Homo sapiens, NCI-N87, 144 h) | IC50 (FaDu; Homo sapiens, FaDu, 144 h) | IC50 (SKOV3; Homo sapiens, SK-OV-3, 144 h) | IC50 (BXPC3; Homo sapiens, BXPC-3, 144 h) | IC50 (SKBR3; SKBR3 cells, 6 days incubation, mean of IC50 values) | IC50 (HT29; HT29 cells, 6 days incubation, mean of IC50 values) | IC50 (NCI-H292; NCI-H292 cells, 6 days incubation, mean of IC50 values) | IC50 (MCF7; MCF7 cells, 6 days incubation, mean of IC50 values) | IC50 (NCI-N87; NCI-N87 cells, 6 days incubation, mean of IC50 values) | IC50 (FaDu; FaDu cells, 6 days incubation, mean of IC50 values) | IC50 (SKOV3; SKOV3 cells, 6 days incubation, mean of IC50 values) | IC50 (BXPC3; BXPC3 cells, 6 days incubation, mean of IC50 values)
CC(C)NCC(O)COc1cccc2ccccc12 (stereo not drawn) [Propranolol, propranolol, reference compound] | 100 µM (≈ 25.9 µg/mL) |  |  |  |  |  |  |  |  |  |  |  |  |  |  |  | 
CC[C@@]1(O)C(=O)OCc2c1cc1n(c2=O)Cc2c-1nc1cc(F)c(C)c3c1c2[C@@H](NC(=O)C#CCO)CC3 [Compound 83] |  | 25.6 nM | 255 nM | 121 nM | 42.2 nM | 159 nM | 16.5 nM |  |  |  |  |  |  |  |  |  | 
CC[C@@]1(O)C(=O)OCc2c1cc1n(c2=S)Cc2c-1nc1cc(F)c(C)c3c1c2[C@@H](N)CC3 [Compound 107] | 15 µM (≈ 6.77 µg/mL) | 0.1 nM | 0.4 nM | 0.6 nM | 0.2 nM | 0.2 nM | 0.1 nM |  |  |  |  |  |  |  |  |  | 
CC[C@@]1(O)C(=O)OCc2c1cc1n(c2=O)Cc2c-1nc1cc(F)c(C)c3c1c2[C@@H](N(C)CCO)CC3 [Compound 140] | 10 µM (≈ 4.94 µg/mL) | 0.8 nM | 1.2 nM | 3 nM | 0.2 nM | 1.5 nM | 0.3 nM |  |  |  |  |  |  |  |  |  | 
CC[C@@]1(O)C(=O)OCc2c1cc1n(c2=O)Cc2c-1nc1cc(F)c(C)c3c1c2[C@@H](NC(=O)C12CC(O)(C1)C2)CC3 [Compound 79] |  | 5.9 nM | 31.7 nM | 14 nM | 9.8 nM | 15.5 nM | 2.3 nM | 25.3 nM | 5.5 nM |  |  |  |  |  |  |  | 
SN-38 |  |  |  |  |  |  |  |  |  | 1.8 nM | 5.1 nM | 2.5 nM | 4.3 nM | 4.2 nM | 2.2 nM | 3.2 nM | 0.5 nM
CC[C@@]1(O)C(=O)OCc2c1cc1n(c2=O)Cc2c-1nc1cc(F)c(C)c3c1c2[C@@H](NC(=O)CCC1OCCO1)CC3 [Compound 188] | 6 µM (≈ 3.38 µg/mL) | 3.4 nM | 13 nM | 6.6 nM | 4.9 nM | 9 nM | 1.5 nM |  |  |  |  |  |  |  |  |  | 
CC[C@@]1(O)C(=O)OCc2c1cc1n(c2=O)Cc2c-1nc1cc(F)c(C)c3c1c2[C@@H](NC(=O)CCC(=O)NC(CO)(CO)CO)CC3 [Compound 122] |  | 657 nM | 3400 nM | 1020 nM | 205 nM | 2700 nM | 121 nM | 819 nM | 227 nM |  |  |  |  |  |  |  | 
CC[C@@]1(O)C(=O)OCc2c1cc1n(c2=S)Cc2c-1nc1cc(F)c(C)c3c1c2[C@@H](NC(=S)[C@H]1C[C@@H]1CO)CC3 [Compound 175-B] |  | 0.5 nM | 1.6 nM | 1.5 nM | 0.6 nM | 1.5 nM | 0.3 nM |  |  |  |  |  |  |  |  |  | 
CC[C@@]1(O)C(=O)OCc2c1cc1n(c2=O)Cc2c-1nc1cc(F)c(C)c3c1c2[C@@H](NC(=O)c1cc(CO)[nH]n1)CC3 [Compound 168] |  | 32.7 nM | 627 nM | 77.9 nM | 19.4 nM | 103 nM | 9.9 nM |  |  |  |  |  |  |  |  |  | 
CC[C@@]1(O)C(=O)OCc2c1cc1n(c2=O)Cc2c-1nc1cc(F)c(C)c3c1c2[C@@H](NCCOCCO)CC3 [Compound 147] | 21 µM (≈ 11 µg/mL) | 2.7 nM | 7.1 nM | 9.4 nM | 3.1 nM | 8.5 nM | 3 nM |  |  |  |  |  |  |  |  |  | 
CC[C@@]1(O)C(=O)OCc2c1cc1n(c2=O)Cc2c-1nc1cc(F)c(C)c3c1c2[C@@H](NC(=O)C1CC(O)C1)CC3 (stereo partly drawn) [Compound 58] |  | 12.1 nM | 177 nM | 60.5 nM | 32 nM | 49.4 nM | 6.3 nM |  |  |  |  |  |  |  |  |  | 
CC[C@@]1(O)C(=O)OCc2c1cc1n(c2=O)Cc2c-1nc1cc(F)c(C)c3c1c2[C@@H](NC(=O)c1cc(O)[nH]n1)CC3 [Compound 166] | 22 µM (≈ 12 µg/mL) | 118 nM | 663 nM | 322 nM | 162 nM | 410 nM | 93.8 nM |  |  |  |  |  |  |  |  |  | 
CC[C@@]1(O)C(=O)OCc2c1cc1n(c2=O)Cc2c-1nc1cc(F)c(C)c3c1c2[C@@H](NC(=O)C1(O)COC1)CC3 [Compound 159] | 27 µM (≈ 14.5 µg/mL) | 5.8 nM | 64.2 nM | 21.6 nM | 9.8 nM | 22.4 nM | 2 nM |  |  |  |  |  |  |  |  |  | 
CC[C@@]1(O)C(=O)OCc2c1cc1n(c2=O)Cc2c-1nc1cc(F)c(C)c3c1c2[C@@H](NCCNCCN)CC3 [Compound 164] | 10 µM (≈ 5.22 µg/mL) | 10.8 nM | 32.7 nM | 30.3 nM | 5.2 nM | 22.8 nM | 8.8 nM |  |  |  |  |  |  |  |  |  | 
CC[C@@]1(O)C(=O)OCc2c1cc1n(c2=O)Cc2c-1nc1cc(F)c(C)c3c1c2[C@@H](NC(=O)[C@H]1C[C@H]1CO)CC3 (single isomer, unassigned) [Compound 111-B] | 30 µM (≈ 16 µg/mL) | 2.1 nM | 6.3 nM | 4.5 nM | 3.8 nM | 5.2 nM | 1.1 nM |  |  |  |  |  |  |  |  |  | 
CC[C@@]1(O)C(=O)OCc2c1cc1n(c2=S)Cc2c-1nc1cc(F)c(C)c3c1c2[C@@H](NC(=O)CO)CC3 [Compound 106] |  | 0.4 nM | 1.1 nM | 0.4 nM | 0.2 nM | 0.9 nM |  |  |  |  |  |  |  |  |  |  | 
CC[C@@]1(O)C(=O)OCc2c1cc1n(c2=O)Cc2c-1nc1cc(F)c(C)c3c1c2[C@@H](N(C=O)CCO)CC3 [Compound 163] | 24 µM (≈ 12.2 µg/mL) | 9.8 nM | 65 nM | 22.3 nM | 10.9 nM | 29.4 nM | 7.8 nM |  |  |  |  |  |  |  |  |  | 
CC[C@@]1(O)C(=O)OCc2c1cc1n(c2=O)Cc2c-1nc1cc(F)c(C)c3c1c2[C@@H](NC(=S)CO)CC3 [Compound 176] |  | 0.7 nM | 4.3 nM | 4.5 nM | 7.8 nM | 2.1 nM | 0.9 nM |  |  |  |  |  |  |  |  |  | 
CC[C@@]1(O)C(=O)OCc2c1cc1n(c2=O)Cc2c-1nc1cc(F)c(C)c3c1c2[C@@H](NC(=O)c1coc(CO)n1)CC3 [Compound 167] |  | 3.5 nM | 43.5 nM | 23 nM | 8.9 nM | 34 nM | 3 nM |  |  |  |  |  |  |  |  |  | 
